Measured values reported in PubChem BioAssay AID720589 (Broad Institute, 2013).
The source made the active and inactive calls.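 How the source made its calls: active means fitted curve drops below -35% activity at a concentration within twice the top valid tested dose; inconclusive means no clear call, values can overlap the other calls; inactive means signal rising instead of falling, among other cases.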

Test: HepG2 hepatoma cell cytotoxicity, dose response, cytotoxicity control, CellTiter-Glo luminescence, cherry-pick, set 3 (AID 720589)
Conditions: HepG2 viability, ATP luminescence (CellTiter-Glo), 72 h, hits give low values
[1] = at 26 µM, 0% = untreated, negative = ATP loss
[2] = at 2.85 µM, 0% = untreated, negative = ATP loss
[3] = at 0.9 µM, 0% = untreated, negative = ATP loss
[4] = at 0.011 µM, 0% = untreated, negative = ATP loss
[5] = at 8 µM, 0% = untreated, negative = ATP loss
[6] = at 0.035 µM, 0% = untreated, negative = ATP loss
[7] = at 0.1 µM, 0% = untreated, negative = ATP loss
[8] = at 0.3 µM, 0% = untreated, negative = ATP loss

## CCNC(=O)c1cc2c(c(-c3cccc(-c4cccc(OC)c4)c3)n1)[C@H](CCO)N([S@@](=O)C(C)(C)C)C2
At 3 µM, 0% = untreated, negative = ATP loss
  max activity: -28.9% (inactive)

## O=c1[nH]c(=O)n(C2C[C@H](O)[C@@H](CO)O2)cc1C(F)(F)F (stereo partly drawn)
[1]
  max activity: -30.8% (inactive)

## O=C(C[C@@H]1CC[C@@H]2[C@H](COC[C@@H](O)CN2S(=O)(=O)c2ccc(F)cc2)O1)NCc1ccc(Cl)c(Cl)c1
[2]
  max activity: -11.2% (inactive)

## CCc1ccc(Cn2ncc3c(C(=O)O)cc(C)nc32)cc1
[3]
  max activity: -27.2% (inactive)

## Cc1ccsc1/C=N/Nc1cccc(C(=O)O)c1
[2]
  max activity: -32.4% (inactive)

## COc1ccc(C(=O)Nc2cccc(C(=O)N/N=C/c3ccc(OC)cc3OC)c2)cc1
[4]
  max activity: 23.8% (inactive)

## CN(C)Cc1c(O)ccc2c1O/C(=C\C=C\c1ccccc1)C2=O
[5]
  max activity: -26.2% (inactive)

## C/C=C/c1ccc(C2[C@@H]3CN(C(=O)Cc4ccccc4)C[C@H]2N3)cc1 (stereo partly drawn)
[2]
  max activity: -29.1% (inactive)

## O=C(CNC(c1ccccc1)c1ccccc1)Nc1ccccc1-c1ccccc1
[1]
  max activity: 10.7% (inactive)

## Cc1ccc(C(=O)CN2C(=O)c3ccccc3S2(=O)=O)cc1
[6]
  max activity: 23.9% (inactive)

## O=c1cc(-c2ccccc2)oc2ccc3ccccc3c12
[1]
  max activity: -21.9% (inactive)

## O=C(Cc1nn[nH]n1)c1ccccc1O
[5]
  max activity: -19.1% (inactive)

## O=C(C[C@@H]1C[C@H]2c3cc(NS(=O)(=O)c4ccc(F)cc4)ccc3O[C@H]2[C@H](CO)O1)NCc1ccc(-c2ccccc2)cc1
[5]
  max activity: -26.1% (inactive)

## COc1cccc(Sc2ccccc2/C=N/NC(N)=O)c1
[7]
  max activity: -25.8% (inactive)

## COc1ccc(/C=C2\Oc3ccccc3C2=O)cc1
[8]
  max activity: 21% (inactive)

## Cc1ccc2c(=O)n3c(nc2c1)C(Cc1ccc(O)cc1)NC(=O)c1cc2ccccc2cc1-3 (stereo not drawn)
[5]
  max activity: -16.9% (inactive)

## O=C1CCCC2=C1C(c1ccccn1)Nc1ccc(C(=O)c3ccccc3)cc1N2 (stereo not drawn)
[4]
  max activity: 38.6% (inactive)

## O=C1NC(=O)N(CCc2ccc(F)cc2)C(=O)/C1=C/C=C/c1ccccc1
At 0.3 µM
  max activity: -15.6% (inactive)

## O=C(CCCN1C(=O)/C(=C/c2ccccc2Cl)SC1=S)NNC(=O)c1ccc(Cl)cc1Cl
[6]
  max activity: -21.5% (inactive)

## COc1ccc(NC(=O)N(C)[C@H]2C[C@H]3c4[nH]c5ccccc5c4CCN3C(=O)[C@H]2CO)cc1
[4]
  max activity: -20.5% (inactive)

## COc1cc(OC)cc(-c2cc3nc(C)c(CCC(=O)O)c(C)n3n2)c1
[1]
  max activity: -9.81% (inactive)

## N#CC1=C(N)Oc2cc(N)ccc2C1c1cccc(F)c1 (stereo not drawn)
[5]
  max activity: -30% (inactive)

## COC(=O)C[C@H]1CC[C@H]2[C@H](COc3ccc(NC(=O)Nc4cccc(Cl)c4)cc3C(=O)N2C)O1
[4]
  max activity: -21.5% (inactive)

## COCCCNc1ccn2nc(-c3ccccc3)cc2n1
[6]
  max activity: -48% (inactive)

## COc1ccc(CN(C)C[C@H]2Oc3ccc(NC(=O)CCCCCC(=O)Nc4ccccc4N)cc3CC(=O)N([C@H](C)CO)C[C@H]2C)cc1
At 21 µM, 0% = untreated, negative = ATP loss
  max activity: -31.8% (inactive)

## COC(=O)C[C@H]1CC[C@@H]2[C@H](COc3ccc(NC(=O)Nc4cccc(Cl)c4)cc3C(=O)N2C)O1
[8]
  max activity: -38.3% (inactive)

## CN(c1ccc(NC(=O)CCc2c[nH]c3ccccc23)cc1)c1ccccn1
[5]
  max activity: -31.2% (inactive)

## O=C(Nc1ccc(OC(=O)N2CCCCC2)cc1)N1CCOCC1
At 2.85 µM
  max activity: -13.3% (inactive)

## CC(=O)c1ccc(N=Nc2ccc(C)cc2)cc1
[6]
  max activity: -7.42% (inactive)

## Cc1ccc(/C=N/Nc2ccc3ccccc3n2)o1
[1]
  max activity: -46.4% (inactive)

## Cc1cc(C)cc(C(=O)NC(=S)Nc2ccc(Cc3ccncc3)cc2)c1
[2]
  max activity: -39.1% (inactive)

## O=c1oc2cc(O)ccc2s1
[3]
  max activity: -35.6% (inactive)

## Cc1ccc2oc(/N=C(\N)NC(=O)C(C)(C)C)nc2c1
[1]
  max activity: -11.8% (inactive)

## C(=N\Nc1ccc2ccccc2n1)/c1ccc2c(c1)OCO2
[2]
  max activity: -36.5% (inactive)

## Oc1c(Cl)cc(Cl)c(Cl)c1Cc1c(O)c(Cl)cc(Cl)c1Cl
[2]
  max activity: -40.1% (inactive)

## COc1ccccc1NC(=O)N1[C@@H]2CNC[C@H]1[C@@H]2c1ccc(-c2ccc(C#N)cc2)cc1
[5]
  max activity: -24.4% (inactive)

## COc1ccc(C2=Nn3c(nnc3-c3ccccc3F)SC2)cc1OC1CCOC1 (stereo not drawn)
[8]
  max activity: -28.9% (inactive)

## Cc1cccc(NC(=O)CN2CCN(C(=O)CNC(=O)c3ccc(-c4ccccc4)cc3)CC2)c1C
[1]
  max activity: -36.3% (inactive)

## C[C@@H]1CN([C@@H](C)CO)C(=O)Cc2cc(NC(=O)Cn3cnnn3)ccc2O[C@@H]1CN(C)Cc1ccc(Oc2ccccc2)cc1
[1]
  max activity: 25% (inactive)

## O=C(NCc1ccccn1)c1ccc(CNS(=O)(=O)c2cccc(Cl)c2)cc1
[3]
  max activity: -24.4% (inactive)

## Cc1ccsc1C(=O)OCC(=O)c1cc(C)n(C)c1C
[7]
  max activity: 9.16% (inactive)

## COc1ccc(/C=N/Nc2ccc(C(=O)O)cc2)cc1Br
[4]
  max activity: -16% (inactive)

## O=C(O)c1ccc(N/N=C/c2c[nH]c3ccccc23)cc1
[1]
  max activity: -17.3% (inactive)

## COC(=O)C[C@@H]1CC[C@@H]2[C@H](COc3ccc(NC(=O)c4ccc(F)cc4)cc3C(=O)N2C)O1
[3]
  max activity: -31.5% (inactive)

## COC(=O)C[C@@H]1CC[C@@H]2[C@@H](COc3ccc(NC(=O)Nc4cccc(Cl)c4)cc3C(=O)N2C)O1
[5]
  max activity: -33.7% (inactive)

## COC(=O)Cc1[nH]n(-c2nc3ccccc3s2)c(=O)c1C(C)=Nc1ccc(OC)cc1
[1]
  max activity: -20.2% (inactive)

## C[C@@H]1CCCCO[C@@H](CN(C)C(=O)Cc2ccccc2)[C@@H](C)CN([C@@H](C)CO)C(=O)c2cc(NS(=O)(=O)c3ccc(F)cc3)ccc2O1
[8]
  max activity: -23.7% (inactive)

## CCOc1ccc(OCc2ccc(C(=O)NN=Cc3ccc[nH]3)cc2)cc1
[1]
  max activity: -34% (inactive)

## COc1ccc(-c2sc3ccccc3c2-c2ccc(OCCN3CCCCC3)cc2)cc1
[1]
  max activity: -22.5% (inactive)

## Cc1ccc(-c2ccc3c(c2)O[C@@H](CN(C)C(=O)Nc2ccc(F)cc2)[C@H](C)CN([C@@H](C)CO)S3(=O)=O)cc1
[5]
  max activity: -53.8% (inactive)

## C[C@@H]1CN([C@@H](C)CO)S(=O)(=O)c2ccc(C#Cc3ccncc3)cc2O[C@H]1CN(C)C(=O)C1CCOCC1
[4]
  max activity: -28.4% (inactive)

## Cc1ccc(Cl)cc1NC(=O)Cn1cc(C(F)(F)F)cc(Cl)c1=O
[5]
  max activity: -28.6% (inactive)

## Cc1cc(C(=O)CN2C(=O)c3ccccc3S2(=O)=O)c(C)n1C(C)C
[1]
  max activity: 17.7% (inactive)

## O=C(O)c1cccc(N/N=C/c2cccs2)c1
[1]
  max activity: -13.2% (inactive)

## O=C(/C=C/c1ccc(Cl)cc1Cl)N(Cc1ccc(Cl)cc1)C1CCS(=O)(=O)C1 (stereo not drawn)
[1]
  max activity: 14% (inactive)

## COc1ccccc1N(/N=C1\Sc2ccccc2C1=O)C(C)=O
[4]
  max activity: -37.6% (inactive)

## O=c1c(Cl)cc(Cl)nn1-c1ccccc1
[1]
  max activity: -34.4% (inactive)

## CN1c2ccc(-c3ccc(C#N)cc3)cc2[C@H]2[C@H](CCN2S(=O)(=O)c2cccc(F)c2)[C@H]1CO
[6]
  max activity: -29.8% (inactive)

## CN(C(=O)COC(=O)c1cc(-c2ccccc2Cl)nc2ccccc12)C1CCS(=O)(=O)C1 (stereo not drawn)
[7]
  max activity: -27.5% (inactive)

## COc1ccccc1NS(=O)(=O)c1cc(NC(=O)c2cc3ccccc3oc2=O)ccc1C
[4]
  max activity: -20.4% (inactive)

## CC(C)(C)c1ccc(Oc2ccc(NC(=O)c3ccccc3C(=O)O)cn2)cc1
[8]
  max activity: -40.7% (inactive)

## COC(=O)c1c(C)[nH]c(/C=N/Nc2ccccc2)c1C
[4]
  max activity: -17.5% (inactive)

## CC(C)(C)c1ccc(/C=N/Nc2ccc(C(=O)O)cc2)cc1
[4]
  max activity: 17.4% (inactive)
